Data from patent US20240109910A1, “HEXAHYDRO-5,8-EPOXYCYCLOHEPTA[c]PYRAZOLE DERIVATIVES USEFUL AS MODULATORS OF THE CB1 AND / OR CB2 RECEPTORS” (JANSSEN PHARMACEUTICA NV, priority 2019, published 2024).

How the values were obtained:
[1] = biological target: hCB1 receptor (Homo sapiens, UniProt P21554); assay: Agonism of CB1 by detection of cAMP using HTRF; format: cell-based; details: CHO cells stably expressing CB1 receptor; for EC50: cAMP HTRF, forskolin-stimulated, average if tested more than once, read-out: hCB1 CHO EC50; for Emax: normalized to DMSO and maximal activation (5 nM CP55940)
Chain of hCB1 receptor (P21554 whole entry): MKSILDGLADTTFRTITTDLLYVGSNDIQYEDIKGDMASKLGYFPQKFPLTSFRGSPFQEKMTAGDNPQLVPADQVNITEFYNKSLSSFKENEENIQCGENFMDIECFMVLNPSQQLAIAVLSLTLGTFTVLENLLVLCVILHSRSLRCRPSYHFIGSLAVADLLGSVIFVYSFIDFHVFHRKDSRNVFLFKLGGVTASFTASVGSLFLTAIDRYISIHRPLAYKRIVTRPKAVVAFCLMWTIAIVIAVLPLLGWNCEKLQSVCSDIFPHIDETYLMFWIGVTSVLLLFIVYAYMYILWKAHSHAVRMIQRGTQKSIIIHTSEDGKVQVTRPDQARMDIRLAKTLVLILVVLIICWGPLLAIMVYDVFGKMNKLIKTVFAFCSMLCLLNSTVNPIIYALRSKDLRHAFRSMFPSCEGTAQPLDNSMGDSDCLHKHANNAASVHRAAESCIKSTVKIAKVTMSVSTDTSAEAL
Method: (§1) Method for Assaying Agonism of CB1 or CB2 by Detection of cAMP Using Homogeneous Time-Resolved Fluorescence (HTRF®)
(§2) CHOP-K1 cells stably expressing the CB1 receptor (PerkinElmer, ES-110-C) or the CB2 receptor (PerkinElmer, ES-111-CF) were seeded into 384 well white TC-treated plates (Greiner 781080) at 7000 cells per well in Ham's media (Gibco #31765-035) supplemented with 10% FBS (Gibco #16000-044) and 500 μg/mL Geneticin (Gibco #10131-027) and cultured overnight. The next day, plates were washed one time in assay buffer (HBSS with Ca^2+ and Mg^2+ (Corning #21-023-CV)+20 mM HEPES (Corning #25-060-Cl) and 0.01% BSA (Sigma A2153)). In a separate compound plate (Greiner 781201-906), 50 nL of test compound or DMSO was transferred using the Echo 550 (Labcyte), then 40 μL/well of assay buffer with 0.5 mM IBMX, 2 μM Forskolin (Sigma F3917), and 0.01% BSA was added. For the CB1 assay, assay buffer was dumped from the cell plate and fresh assay buffer containing 0.5 mM IBMX (Sigma I5679) was added at 30 μL/well, and the plate was incubated for 1 hr at 37° C., 5% CO2. Following the IBMX pre-treatment step, buffer was dumped from the cell plate, and 20 μL/well of the assay buffer with test compound was transferred into the cell plate with a subsequent incubation of 20 min at room temperature. Reagents for cAMP detection (cisbio 62AM4PEJ) were prepared and subsequently transferred to the cell plate at 20 μL/well. Following a 1 hr incubation at room temperature, the plate was read on the Pherastar FX (BMG, excitation 320 nm, detection at 620 nm (donor) and 665 nm (acceptor)). The ratio of signal at 665 nm/620 nm was determined for each well in the plate. For each assay day, a cAMP standard curve was run in parallel to assess the range of response and determine the concentration of cAMP in each well. Control wells (n=16 of each) with no activation of CB1 receptor (DMSO) and maximal activation (5 nM CP55940, Sigma) were used to normalize the data and to determine signal-to-background ratio and Z′. For the CB2 assay, conditions were as described above for the CB1 assay, except that the IBMX preincubation step was not used and that the 20 min compound incubation step occurred in the incubator at 37° C., 5% CO2.
(§3) EC50 values were calculated from dose response curves by nonlinear regression analysis using PRISM software.
(§4) Representative compounds of the present invention were tested according to the procedures described in Biological Example 1 above, with results as listed in Table 3, below. If a compound was tested more than once (due to multiple samples or batches), then the value listed in Table 3 below represents the average of the measured values.

[2] = biological target: hCB2 receptor (Homo sapiens, UniProt P34972); assay: Agonism of CB2 by detection of cAMP using HTRF; format: cell-based; details: CHO cells stably expressing CB2 receptor; for EC50: cAMP HTRF, forskolin-stimulated, average if tested more than once, read-out: hCB2 CHO EC50; for Emax: normalized to DMSO and maximal activation (5 nM CP55940)
Chain of hCB2 receptor (P34972 whole entry): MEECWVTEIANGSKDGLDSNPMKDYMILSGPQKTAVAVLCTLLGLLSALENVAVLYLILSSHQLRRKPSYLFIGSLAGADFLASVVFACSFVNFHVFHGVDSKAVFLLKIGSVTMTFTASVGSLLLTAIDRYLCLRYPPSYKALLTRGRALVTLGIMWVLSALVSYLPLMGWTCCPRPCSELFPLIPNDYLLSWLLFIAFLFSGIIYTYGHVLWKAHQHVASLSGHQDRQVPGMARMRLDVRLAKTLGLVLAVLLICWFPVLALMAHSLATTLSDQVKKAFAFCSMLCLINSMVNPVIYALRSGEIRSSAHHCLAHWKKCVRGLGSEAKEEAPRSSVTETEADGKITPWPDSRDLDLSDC
Method: as §1, §2, §3, §4

`CC(C)(C)NC(=O)c1nn(-c2ccc(F)cc2F)c2c1CC1CCC2O1` (centres unmarked) [Compound 1, N-(tert-butyl)-1-(2,4-difluorophenyl)-1,4,5,6,7,8-hexahydro-5,8-epoxycyclohepta[c]pyrazole-3-carboxamide] gave an EC50 [1] of 108 nM, an Emax [1] of 99% and an EC50 [2] of 1.2 nM. For the same compound, the Emax [2] was 95.6%.

Compound `CC(C)(C)NC(=O)c1c2c(nn1-c1ccc(F)cc1F)C1CCC(C2)O1` (centres unmarked) [Compound 2, N-(tert-butyl)-2-(2,4-difluorophenyl)-2,4,5,6,7,8-hexahydro-5,8-epoxycyclohepta[c]pyrazole-3-carboxamide] has an EC50 [2] of 2980 nM and an Emax [2] of 72.8%.

With `CC(C)(C)NC(=O)c1nn(-c2cnccn2)c2c1CC1CCC2O1` (centres unmarked) [Compound 3, N-(tert-butyl)-1-(pyrazin-2-yl)-1,4,5,6,7,8-hexahydro-5,8-epoxycyclohepta[c]pyrazole-3-carboxamide] the EC50 [1] was 2080 nM, the Emax [1] was 94.8% and the EC50 [2] was 3.8 nM. The Emax [2] was 99.7%.

`CC(C)(C)NC(=O)c1c2c(nn1-c1cnccn1)C1CCC(C2)O1` (centres unmarked) [Compound 4, N-(tert-butyl)-2-(pyrazin-2-yl)-2,4,5,6,7,8-hexahydro-5,8-epoxycyclohepta[c]pyrazole-3-carboxamide] was tested, and the EC50 [2] was 4070 nM and the Emax [2] was 75.8%.

With `CC(C)(C)[C@@H](CO)NC(=O)c1nn(-c2cnccn2)c2c1C[C@@H]1CC[C@H]2O1` [Compound 7, (5S,8R)-N-((S)-1-hydroxy-3,3-dimethylbutan-2-yl)-1-(pyrazin-2-yl)-1,4,5,6,7,8-hexahydro-5,8-epoxycyclohepta[c]pyrazole-3-carboxamide] the EC50 [2] was 0.56 nM and the Emax [2] was 100%.

Work on `CC(C)(C)[C@@H](CO)NC(=O)c1nn(-c2cnccn2)c2c1C[C@H]1CC[C@@H]2O1` [Compound 8, (5R,8S)-N-((S)-1-hydroxy-3,3-dimethylbutan-2-yl)-1-(pyrazin-2-yl)-1,4,5,6,7,8-hexahydro-5,8-epoxycyclohepta[c]pyrazole-3-carboxamide] yielded an EC50 [1] of 422 nM, an Emax [1] of 111% and an EC50 [2] of 0.09 nM. The Emax [2] was 100%.

`O=C(NC1(C(F)(F)F)CC1)c1nn(-c2cnccn2)c2c1CC1CCC2O1` (centres unmarked) [Compound 9, 1-(pyrazin-2-yl)-N-(1-(trifluoromethyl)cyclopropyl)-1,4,5,6,7,8-hexahydro-5,8-epoxycyclohepta[c]pyrazole-3-carboxamide] showed an EC50 [2] of 0.24 nM and an Emax [2] of 100%.

For `CC(C)(CO)NC(=O)c1nn(-c2cnccn2)c2c1CC1CCC2O1` (centres unmarked) [Compound 11, N-(1-hydroxy-2-methylpropan-2-yl)-1-(pyrazin-2-yl)-1,4,5,6,7,8-hexahydro-5,8-epoxycyclohepta[c]pyrazole-3-carboxamide], the EC50 [2] was 7.1 nM and the Emax [2] was 99.2%.

For `CC(C)(C)[C@@H](CO)NC(=O)c1nn(-c2c[n+]([O-])ccn2)c2c1C[C@@H]1CC[C@H]2O1` [Compound 15, 3-((5S,8R)-3-(((S)-1-hydroxy-3,3-dimethylbutan-2-yl)carbamoyl)-5,6,7,8-tetrahydro-5,8-epoxycyclohepta[c]pyrazol-1(4H)-yl)pyrazine 1-oxide], the EC50 [2] was 0.34 nM and the Emax [2] was 101%.

Work on `O=C(NC1(C(F)(F)F)CC1)c1nn(-c2c[n+]([O-])ccn2)c2c1CC1CCC2O1` (centres unmarked) [Compound 17, 3-(3-((1-(trifluoromethyl)cyclopropyl)carbamoyl)-5,6,7,8-tetrahydro-5,8-epoxycyclohepta[c]pyrazol-1(4H)-yl)pyrazine 1-oxide] yielded an EC50 [2] of 0.12 nM and an Emax [2] of 100%.

`CC(C)(CO)NC(=O)c1nn(-c2c[n+]([O-])ccn2)c2c1CC1CCC2O1` (centres unmarked) [Compound 19, 3-(3-((1-hydroxy-2-methylpropan-2-yl)carbamoyl)-5,6,7,8-tetrahydro-5,8-epoxycyclohepta[c]pyrazol-1(4H)-yl)pyrazine 1-oxide] was tested, and the EC50 [2] was 1 nM and the Emax [2] was 100%.

Work on `CC(C)(C)c1nc(-c2nn(-c3c[n+]([O-])ccn3)c3c2CC2CCC3O2)no1` (centres unmarked) [Compound 23, 3-(3-(5-(tert-butyl)-1,2,4-oxadiazol-3-yl)-5,6,7,8-tetrahydro-5,8-epoxycyclohepta[c]pyrazol-1(4H)-yl)pyrazine 1-oxide] yielded an EC50 [2] of 0.1 nM and an Emax [2] of 100%.

For `CC(C)(C)c1nnc(-c2nn(-c3c[n+]([O-])ccn3)c3c2CC2CCC3O2)[s+]1[O-]` (centres unmarked) [Compound 28, 3-(3-(5-(tert-butyl)-1-oxido-1,3,4-thiadiazol-2-yl)-5,6,7,8-tetrahydro-5,8-epoxycyclohepta[c]pyrazol-1(4H)-yl)pyrazine 1-oxide], the EC50 [2] was 0.74 nM and the Emax [2] was 99%.

`CC(C)(C)NC(=O)c1c2c(nn1-c1c[n+]([O-])ccn1)C1CCC(C2)O1` (centres unmarked) [Compound 30, 3-(3-(tert-butylcarbamoyl)-5,6,7,8-tetrahydro-5,8-epoxycyclohepta[c]pyrazol-2(4H)-yl)pyrazine 1-oxide] was tested, and the EC50 [2] was 7970 nM and the Emax [2] was 66.3%.

In the case of `CC(C)(C)c1nc(-c2nn(-c3cnccn3)c3c2CC2CCC3O2)no1` (centres unmarked) [Compound 32, 3-(5-(tert-butyl)-1,2,4-oxadiazol-3-yl)-1-(pyrazin-2-yl)-1,4,5,6,7,8-hexahydro-5,8-epoxycyclohepta[c]pyrazole], the EC50 [2] is reported as 0.33 nM and the Emax [2] is reported as 100%.

`CC(C)(C)c1cnc(-c2nn(-c3cnccn3)c3c2CC2CCC3O2)s1` (centres unmarked) [Compound 34, 3-(5-(tert-butyl)thiazol-2-yl)-1-(pyrazin-2-yl)-1,4,5,6,7,8-hexahydro-5,8-epoxycyclohepta[c]pyrazole] was tested, and the EC50 [2] was 0.24 nM and the Emax [2] was 99.7%.

Work on `CCC(C)(C)c1noc(-c2nn(-c3cnccn3)c3c2CC2CCC3O2)n1` (centres unmarked) [Compound 36, 3-(3-(tert-pentyl)-1,2,4-oxadiazol-5-yl)-1-(pyrazin-2-yl)-1,4,5,6,7,8-hexahydro-5,8-epoxycyclohepta[c]pyrazole] yielded an EC50 [2] of 0.04 nM and an Emax [2] of 99.8%.

Work on `CC(C)(C)c1nnc(-c2nn(-c3cnccn3)c3c2CC2CCC3O2)o1` (centres unmarked) [Compound 39, 3-(5-(tert-butyl)-1,3,4-oxadiazol-2-yl)-1-(pyrazin-2-yl)-1,4,5,6,7,8-hexahydro-5,8-epoxycyclohepta[c]pyrazole] yielded an EC50 [2] of 0.26 nM and an Emax [2] of 100%.

For `CC(C)(C)c1cnc(-c2nn(-c3cnccn3)c3c2CC2CCC3O2)o1` (centres unmarked) [Compound 40, 3-(5-(tert-butyl)oxazol-2-yl)-1-(pyrazin-2-yl)-1,4,5,6,7,8-hexahydro-5,8-epoxycyclohepta[c]pyrazole], the EC50 [2] was 0.13 nM and the Emax [2] was 99.7%.

`CC(C)(C)c1csc(-c2nn(-c3c[n+]([O-])ccn3)c3c2CC2CCC3O2)n1` (centres unmarked) [Compound 44, 3-(3-(4-(tert-butyl)thiazol-2-yl)-5,6,7,8-tetrahydro-5,8-epoxycyclohepta[c]pyrazol-1(4H)-yl)pyrazine 1-oxide] gave an EC50 [2] of 46.3 nM and an Emax [2] of 84.6%.

In the case of `CC(C)(C)NC(=O)c1nn(-c2cnccn2)c2c1C1CCC(C2)O1` (centres unmarked) [Compound 45], the EC50 [2] is reported as 22.9 nM and the Emax [2] is reported as 98.1%.

With `CC(C)(C)NC(=O)c1c2c(nn1-c1cnccn1)CC1CCC2O1` (centres unmarked) [Compound 46] the EC50 [2] was 1650 nM and the Emax [2] was 85.8%.

`CC(C)(C)NC(=O)c1nn(-c2ccc(F)cc2F)c2c1C1CCC(C2)O1` (centres unmarked) [Compound 47] showed an EC50 [2] of 559 nM and an Emax [2] of 82.5%.

With `CC(C)(C)NC(=O)c1nn(-c2c[n+]([O-])ccn2)c2c1C1CCC(C2)O1` (centres unmarked) [Compound 48] the EC50 [2] was 1.98 nM and the Emax [2] was 99.9%.

`CC(C)(C)NC(=O)c1c2c(nn1-c1c[n+]([O-])ccn1)CC1CCC2O1` (centres unmarked) [Compound 49] gave an EC50 [2] of 2670 nM and an Emax [2] of 80.3%.
